Experimental data: ChEMBL document CHEMBL1133702

Biological target: Estrogen receptor (Ovis aries) (UniProt P49885+Q9TU15)

SMILES	RAC app
C[C@]12C[C@H](c3ccc(OCCCCCNC(=O)CBr)cc3)[C@@H]3c4ccc(O)cc4CC[C@H]3[C@@H]1CC[C@@H]2O	17.1
C[C@]12C[C@H](c3ccc(OCCI)cc3)[C@@H]3c4ccc(O)cc4CC[C@H]3[C@@H]1CC[C@@H]2O	10.6
CN(CCCCCOc1ccc([C@H]2C[C@]3(C)[C@@H](O)CC[C@H]3[C@@H]3CCc4cc(O)ccc4[C@H]32)cc1)C(=O)CBr	9.7
C[C@]12C[C@H](c3ccc(OCCCCCI)cc3)[C@@H]3c4ccc(O)cc4CC[C@H]3[C@@H]1CC[C@@H]2O	8.23
CN(CC#Cc1ccc([C@H]2C[C@]3(C)[C@@H](O)CC[C@H]3[C@@H]3CCc4cc(O)ccc4[C@H]32)cc1)C(=O)CCl	19.4
C[C@]12C[C@H](c3ccc(OCCOS(C)(=O)=O)cc3)[C@@H]3c4ccc(O)cc4CC[C@H]3[C@@H]1CC[C@@H]2O	39.9
CN(CCOc1ccc([C@H]2C[C@]3(C)[C@@H](O)CC[C@H]3[C@@H]3CCc4cc(O)ccc4[C@H]32)cc1)C(=O)CCl	6.96
CN(CCOc1ccc([C@H]2C[C@]3(C)[C@@H](O)CC[C@H]3[C@@H]3CCc4cc(O)ccc4[C@H]32)cc1)C(=O)CBr	4.22
C[C@]12C[C@H](c3ccc(C#CCNC(=O)CCl)cc3)[C@@H]3c4ccc(O)cc4CC[C@H]3[C@@H]1CC[C@@H]2O	14.5
C[C@]12C[C@H](c3ccc(OCCNC(=O)CCl)cc3)[C@@H]3c4ccc(O)cc4CC[C@H]3[C@@H]1CC[C@@H]2O	3.3
